Results taken from patent publication US20050020576A1, “Kappa agonist compounds and pharmaceutical formulations thereof” (priority 1996, published 2005).
Several values for one entry are separate records, joined by “and”; a condition that tells them apart may be missing. Identical values can stand only once. Counter-ions that a name gives are not always drawn.

Experiments:
[1] = target: T1, cloned human kappa receptor (Homo sapiens, UniProt P41145); assay: biochemical; type: binding
[2] = target: T1, cloned human kappa receptor; assay: [3H]U69593 (agonist) binding to the cloned human kappa receptor
[3] = tested on: formalin-induced flinching; assay: animal or person; type: in vivo, male Sprague-Dawley rats; settings: rat, in vivo

T1 sequence (P41145 whole entry): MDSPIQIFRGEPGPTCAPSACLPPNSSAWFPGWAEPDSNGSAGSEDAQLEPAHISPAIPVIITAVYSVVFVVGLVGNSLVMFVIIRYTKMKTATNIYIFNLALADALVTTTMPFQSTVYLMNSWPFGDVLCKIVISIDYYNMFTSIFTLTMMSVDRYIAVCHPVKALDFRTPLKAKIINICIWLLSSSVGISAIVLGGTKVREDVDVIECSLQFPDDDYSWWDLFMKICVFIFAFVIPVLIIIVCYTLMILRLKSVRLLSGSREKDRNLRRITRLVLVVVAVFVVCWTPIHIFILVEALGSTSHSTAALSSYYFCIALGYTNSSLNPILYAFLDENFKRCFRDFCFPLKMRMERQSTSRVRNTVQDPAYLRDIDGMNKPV

Compound | Ki ([1]; Ki, nM 3H-Diprenorphin) | Ki ([2]; Ki, nM 3H-U-69,593) | Late Phase Formalin, % @ 300; i.paw [3] | further results
COC(=O)N1CCN(C(=O)Cc2ccc(C(F)(F)F)cc2)C(CN2CCCC2)C1 (racemic) [(R,S-9b), (R,S)-Methyl 4-[(4-trifluoromethylphenyl)acetyl]-3-[(1-pyrrolidinyl)-methyl]-1-piperazinecarboxylate hydrochloride] | 0.49 nM | 0.076 nM and 0.13 nM | 98% @ 300 | 
COC(=O)N1CCN(C(=O)Cc2c[nH]c3ccccc23)C(CN2CCCC2)C1 (racemic) [(R,S-9c), (R,S)-Methyl 4-[(3-indolyl)acetyl]-3-[(1-pyrrolidinyl)-methyl]-1-piperazine-carboxylate hydrochloride] | 3 nM | 0.27 nM and 0.4 nM | 95% @ 300 | 
COC(=O)N1CCN(C(=O)Cc2ccccc2[N+](=O)[O-])C(CN2CCCC2)C1 (racemic) [(R,S-9d), (R,S)-Methyl 4-[(2-nitrophenyl)acetyl]-3-[(1-Pyrrolidinyl)-methyl]-1-piperazine-carboxylate hydrochloride] | 37 nM | 0.74 nM and 0.73 nM | 93% @ 300 | 
COC(=O)N1CCN(C(=O)Cc2ccccc2OC)C(CN2CCCC2)C1 (racemic) [(R,S-9e), hydrochloride] | 7.3 nM | 0.46 nM and 1.3 nM | 98% @ 300 | 
COC(=O)N1CCN(C(=O)Cc2ccccc2N)C(CN2CCCC2)C1 (racemic) [(R,S-9f), (R,S)-Methyl 4-[(2-aminophenyl)acetyl]-3-[(1-pyrrolidinyl)-methyl]-1-piperazine-carboxylate dihydrochloride] | 4.6 nM and 3.2 nM | 0.67 nM and 0.41 nM | 97% @ 300 | 
CC(=O)N1CCN(C(=O)Cc2ccc(S(C)(=O)=O)cc2)C(CN2CCCC2)C1 (racemic) [(R,S-10a), hydrochloride] |  | 2.3 nM | 6% @ 300 | inhibition at 1 µM ([1]; read-out: 3H-Diprenorphin, % @ 1 uM): 27%
CCOC(=O)CN(CC(=O)OCC)c1ccc2c(c1)[C@H](N(C)C(=O)Cc1ccc(Cl)c(Cl)c1)[C@@H](N1CCCC1)CC2 (racemic) [II-10] |  |  |  | Ki ([1]; Ki (nM) k [3H] Diprenorphin): 4.6 nM; Ki ([2]; Ki (nM) k (mg) [3H]U69,593): 0.68 nM; Late Phase Formalin, % A @ 300 [3]: 37% A @ 300
Cl.O=C(Cc1ccc(Cl)c(Cl)c1)N1CCNC[C@@H]1CN1CCCC1 [(R-2), (R)-1-[(3,4-Dichlorophenyl)acetyl]-2-[(1-pyrrolidinyl)methyl]piperazine hydrochloride] | 14 nM and 17 nM | 1.5 nM and 1.3 nM | 57% @ 300 | 
CC(C)(C)CC(=O)N1CCN(C(=O)Cc2ccc(Cl)c(Cl)c2)[C@H](CN2CCCC2)C1 [(R-3b), (R)-4-t-Butyl-acetyl-1-[(3,4-dichlorophenyl)acetyl]-2-[(1-pyrrolidinyl)methyl]-piperazine] |  |  |  | 3H-Diprenorphin, % @ 1 uM [1]: 30% @ 1 uM; 3H-U-69,593, % @ 1 uM [2]: 75% @ 1 uM; Late Phase Formalin column, % I @ 1 μM [3]: 75% I @ 1 μM
Cl.Cl.NC(CC(=O)O)C(=O)N1CCN(C(=O)Cc2ccc(Cl)c(Cl)c2)[C@H](CN2CCCC2)C1 (stereo partly drawn) [(R-3e), (R)-4-Aspartic acid-1-[(3,4-dichlorophenyl)acetyl]-2-[(1-pyrrolidinyl)methyl]-piperazine dihydrochloride] |  |  | 22% A @ 300 | 3H-Diprenorphin, % @ 1 uM [1]: 39% @ 1 uM; Ki ([2]; dihydrochloride, read-out: Ki, nM 3H-U-69,593): 37 nM and 28 nM
CCOP(=O)(OCC)N1CCN(C(=O)Cc2ccc(Cl)c(Cl)c2)[C@H](CN2CCCC2)C1 [(R-3g), (R)-4-(Diethoxyphosphonate)-1-[(3,4-dichlorophenyl)acetyl]-2-[(1-pyrolidinyl)methyl]-piperazine hydrochloride] | 99 nM and 33 nM | 1.3 nM and 1.4 nM | 54% @ 300 | 
O=C(Cc1ccc(Cl)c(Cl)c1)N1CCN(C(=O)C(F)(F)F)C[C@H]1CN1CCCC1 [(R-3h), (R)-4-Trifluoroacetyl-1-(3,4-dichlorophenyl)acetyl]-2-[(1-pyrrolidinyl)methyl]-piperazine hydrochloride] | 6.9 nM and 1.8 nM | 0.26 nM and 0.16 nM | 94% @ 300 | 
